Results as given in paper PMC8162347, “Bolaamphiphilic Bis-Dehydropeptide Hydrogels as Potential Drug Release Systems” (Gels, 2021).

How the values were obtained:
[1] = Gelation study, pH trigger with GdL, vial inversion test; format: physicochemical; details: for pH (gelation conditions): pH of hydrogel at cgc after GDL 0.4 wt %; for Critical Gelation Concentration (cgc): vial inversion test, water, NaOH (1 M) to circa pH 10, then GDL 0.4 wt %
Description: Nonetheless, dimeric dehydropeptides 1–4 could be dissolved in water upon pH adjustment to pH 10–11, which was achieved by addition of NaOH solution (1 M). Gel formation was triggered by a slow pH drop. The pH change was obtained by the aqueous hydrolysis of added D-glucono-δ-lactone (GdL) to D-gluconic acid. […] The CGCs of hydrogels 1–3 were qualitatively assessed by varying the peptide concentrations and conducting vial inversion tests.
Dehydrodipeptides 1, 2 and 3 were weighed into sample vials, water was added, and the suspension was adjusted under magnetic stirring to circa pH 10 (pH meter) by the addition of NaOH (1 M), and D-glucono-δ-lactone (GDL) was added. The solutions were left standing overnight at room temperature (20–25 °C).

[2] = Sustained release assay of model cargo from hydrogels
Protocol: Hydrogels containing cationic, anionic, or zwitterionic model drugs were prepared using the same conditions described in Section 2.2 but with the water component (1 mL) being replaced by a methylene blue solution, methyl orange solution, or ciprofloxacin solution. In a modified version of the method described by Abraham et al., water was carefully layered on top of the hydrogel surface. Then, the percentage release of model drug was recorded versus time, over 6 days, through UV absorption measurements or by HPLC and then subsequently fitted to a standard calibration curve (Figure S10 in Supplementary Information). The experiments were also assessed visually (Figure 9). […] In the studies involving the release of methyl orange, a clearly visible release of the anionic dye into the layered water solution was observed from the three hydrogels after several days (Figure 9B,D,F centre). The results for the release of methyl orange were also confirmed quantitatively by UV absorption measurements. Hydrogelators 1 and 3, which contain a phenylalanine residue, release nearly 60% of the anionic methyl orange cargo, whereas hydrogel 2, containing a tyrosine residue, released more than 90%. […] Ciprofloxacin was included as an overall neutral cargo. In experiments involving hydrogels of compounds 1–3 containing ciprofloxacin, the amount of ciprofloxacin present in the above water layer was determined by HPLC at various time-points. Hydrogelators 1, 2, and 3 release 32%, 58%, and 20% of their ciprofloxacin cargo, respectively (Table 4) (Figure S11 in Supplementary Information). As observed for methyl orange, the hydrogel that releases the greatest amount of ciprofloxacin is the hydrogel obtained from compound 2 (Table 4, Figure S11 in Supplementary Information).
To quantitatively evaluate the drug release from hydrogels 1–3, several mathematical models were tested to see which one fits the tested hydrogels. The Korsmeyer–Peppas model is the preferred model for polymeric systems. Korsmeyer described a simple relationship that described drug release from a polymeric system that includes both the diffusion and erosion of the polymer chain. The following equation describes the Korsmeyer–Peppas model: Mt/M = Kt^n
Hydrogels of 1, 2, and 3 were prepared as described in Section 4.2 to form 1 mL hydrogels containing the same concentration of the hydrogelators described above and the appropriate cargo (methylene blue ([…]), methyl orange (0.2 nM), or ciprofloxacin (0.2 nM)), in a slightly modified version of the procedure described by Abraham et al.. After allowing to stand overnight, 1.5 mL of water was carefully added to the surface of the hydrogels. Aliquots of the layered solution (100 μL) were removed at 1 h, 2 h, 3 h, 4 h, 6 h, 24 h, 72 h, and 6 days from the time the water was initially layered on top of the hydrogel. After removing each aliquot, the volume water was immediately replaced by an equal volume of water. The concentration of methylene blue or methyl orange in each aliquot was determined by measuring the absorbance at λmax of the dye (666 nm for methylene blue and 465 nm for methyl orange) using a microplate reader and then converting the value to percentage release (using a standard calibration curve). The concentration of ciprofloxacin in each aliquot was determined using analytical HPLC, where the integrated peak area was converted to a percentage release (using a standard calibration curve). Each experiment was performed in triplicate, and the mean percentage cargo release was plotted against time.

[3] = Oscillatory rheology of hydrogels; format: physicochemical; details: for k (growth rate constant) / kn (nucleation rate constant): fit of Equation (1) to gelation kinetics; for dG: fit of Equation (1), increment in storage modulus during the kinetics; for Initial time lag before the significant rise in G′: gelation kinetics, 0.001% strain; for Initial time lag before the significant rise in G′ / G′ / G″: 25 °C; for Initial time lag before the significant rise in G′ / Thermal stability of gel (variation of G′): 1 Hz; for Thermal stability of gel (variation of G′): heating–cooling cycle between 25 and 40 °C, 1 °C/min, strain 0.005%; for G′ / G″: hydrogel at structural equilibrium, frequency sweep 100 to 0.1 Hz, strain 0.01%
Description: This is due to the rather small deformation used during this test to allow gel formation without disturbing the build-up of the network structure. In contrast to this, see the data for compounds 1 and 2. A two-step model is often used to describe the nucleation (with rate constant kn) and growth (with rate constant k) of aggregates of peptides:(1) f(t) = G0 + dGρ(e^(1+ρ)kt − 1)/1 + ρe^(1+ρ)kt where ρ = kn/k , G0 is the initial storage modulus of the aggregate-free solution, and dG is the increment in the storage modulus during the kinetics.
After reaching the structural equilibrium established by the reading of constant shear moduli G′ and G″ with time, a frequency-sweep from 100 down to 0.1 Hz was performed with a strain of 0.01% (Figure S6 in Supplementary Information). For hydrogels obtained from compounds 1, 2, and 3, G′ is essentially constant over the frequency domain tested, and it is 10 times larger than G″. Overall, all mechanical spectra are qualitatively similar and reminiscent of the rheological signature of gels, as G′ is higher than G″ for hydrogels of compounds 1–3 (Table 3). ′
After the thermal cycle, gels were submitted to a strain sweep, where the frequency was maintained at 1 Hz. The hydrogels of compounds 2 and 1 break up more easily than hydrogel of compound 3 (Figure 7). […] In summary, and connecting the rheological data to the structural information inferred from both STEM and CD, coil conformers of compound 2 rapidly self-assemble to build a rubber-like (entropic) network, which brings most of the gel elasticity. This is in contrast to the elastically weaker gels of compound 3, which are predominantly made from the networking of fibrils likely formed from beta conformers. Gels of compound 1 show intermediate elasticity, originating from the slower networking of a mixture of coil and beta sheet conformers.
The viscoelastic characterization of hydrogels was performed with a stress-controlled rotational rheometer Anton Paar MCR300 (Anton Paar GmbH, Graz, Austria). Gel-forming solutions were loaded in the shearing geometry (a Couette cell with 1 mL volume and 0.5 mm gap) at 25 °C. The liquid sample was pre-sheared at a shear rate of 5 s^−1 during one minute to homogenize the sample in the shearing geometry. Then, the gelation kinetics was monitored during 10 h by applying a small amplitude (0.001%) oscillatory shear at 1 Hz and recording both storage (G′) and loss (G″) moduli at each second. Then, mechanical spectra were recorded, and gels were submitted to a heating–cooling cycle between 25 and 40 °C at a rate of +/−1 °C/min. Finally, gels were submitted to a strain sweep.

[4] = tested on: HaCaT cell line (human keratinocytes); assay: MTT assay, cell viability; format: cell-based; details: 24 h; for Apparent loss of cell viability (mitochondrial activity): most concentrations tested, independent of concentration
Protocol: Human keratinocytes cell line HaCaT was from ATCC. Cells were cultured in DMEM supplemented with 10% FBS and 1% penicillin/streptomycin and were incubated at 37 °C, in a humidified atmosphere of 5% CO2.
Cells were seeded in 96-well plates (1.5 × 10^4 cells/well) and left to attach for 24 h. After this period, cells were incubated with different concentrations of the molecules under study for another 24 h. Then, cell viability was evaluated based on the ability of metabolically active cells to convert MTT to formazan over the course of 2 h. Absorbances were measured at 570 nm in a Multiskan GO plate reader (Thermo Fisher Scientific; Waltham, MA, USA) and results were expressed as percentage of the respective control and correspond to the mean ± standard error of the mean (SEM) of at least three independent experiments performed in triplicate. On the other hand, to assess the release of the stable cytosolic enzyme lactate dehydrogenase (LDH) into the media, 24 h after the incubation of the cells with the different concentrations of the molecules under study, 40 µL of culture media were removed to a 96-well plate. LDH released was determined using a CytoTox 96® assay kit (Promega; Madison, WI, USA) according to the manufacturer’s instructions. Then, 1% Triton X-100 was used as positive control to assure cell lysis (30 min). Absorbances were measured at 490 nm in a Multiskan GO plate reader (Thermo Fisher Scientific; Waltham, MA, USA), and results correspond to the fold-increase of absorbance in treated vs. untreated cells of three independent experiments performed in duplicate. Following assessment of the distribution of the results, ANOVA was performed using GraphPad Prism 8.0 (GraphPad Prism Inc., San Diego, CA, USA).

[5] = Cbz-capped dehydrodipeptides; cited from earlier work
Protocol: Our research group, and others, have reported new dehydropeptides capable of forming hydrogels. The presence of a dehydroamino acid residue imparts increased proteolytic resistance into the hydrogels, as well as different physical properties arising from the decreased structural flexibility of the dehydropeptide chain [13, 14, 15, 16]. In our laboratories, several dehydrodipeptides capped on the N-terminus with naproxen (e.g., Npx-L-Phe-Z-ΔPhe-OH and Npx-L-Trp-Z-ΔPhe-OH) were prepared and tested as hydrogelators, providing hydrogels with critical gelation concentrations (CGCs) of between ... || Figure 1 (A) Our previously studied naproxen- and carboxybenzyl-capped dehydropeptide hydrogelators. (B) Examples of bolaamphiphilic hydrogelators in the literature. (C) Summary of hydrogel properties. (D) Combining the structures of N-capped dehydrohydropeptide gelators and bolaamphiphilic gelators into a single molecule. TEXT PRINTED IN THE PICTURE: (C) a: cgc (wt%): 0.4 (pH: 8.0) | (C) b: cgc (wt%): 0.4 (pH: 6.0) | (C) c: cgc (wt%): 0.1 (pH: 5.0) | (C) d: cgc (wt%): 0.2 (pH: 5.0) | (C) e: cgc (wt%): 2.5 (pH: 2.0) | (C) f: cgc (wt%): 5.0 (pH: 3.3)

[6] = standing overnight at room temperature (20–25 °C)

Molecule | pH (gelation conditions) [1] | Critical Gelation Concentration (cgc) ([1]; overnight at room temperature) | Critical Gelation Concentration (cgc) [1, 6] | dG [3] [Pa] | Thermal stability of gel (variation of G′) [3] | G′ [3] | G″ [3] | G0 ([3]; fit of Equation (1) (Saitô) to gelation kinetics, initial storage modulus) [Pa] | Hydrogel formation ([1]; slow pH drop by GdL hydrolysis from pH 10–11, for 4 several triggers (pH, temperature, solvent exchange), 0.3–0.8 wt %) | K, release rate constant, Korsmeyer–Peppas model ([2]; ciprofloxacin release profile) | n, release exponent, Korsmeyer–Peppas model ([2]; ciprofloxacin release profile) | K, release rate constant, Korsmeyer–Peppas model ([2]; methyl orange release profile) | n, release exponent, Korsmeyer–Peppas model ([2]; methyl orange release profile) | k (growth rate constant) [3] [h⁻¹] | kn (nucleation rate constant) [3] [h⁻¹] | Initial time lag before the significant rise in G′ [3] [s] | Apparent loss of cell viability (mitochondrial activity) [4] | Effect on HaCaT viability [4] | Loss of mitochondrial activity ([4]; the two highest concentrations) | CGC [5] [%]
O=C(O)/C(=C/c1ccccc1)NC(=O)[C@H](Cc1ccccc1)NC(=O)c1ccc(C(=O)N[C@@H](Cc2ccccc2)C(=O)N/C(=C\c2ccccc2)C(=O)O)cc1 [Compound 1] | 5.10 | 4.0 mM | 0.3 wt % | 2392 ± 66 | not thermally sensitive | 2.5 × 10^3 Pa | 6.5 × 10^1 Pa |  |  | 0.0200 | 0.3300 | 0.0200 | 0.4000 | 0.18 ± 0.10 | 0.40 ± 0.04 | 2300 | around 20% |  |  | 
Cbz-L-Phe-Z-ΔPhe-OH |  |  |  |  |  |  |  |  |  |  |  |  |  |  |  |  |  |  |  | 0.1
Cbz-L-Tyr-Z-ΔPhe-OH |  |  |  |  |  |  |  |  |  |  |  |  |  |  |  |  |  |  |  | 0.1

Further lines, with some results ahead:

pH (gelation conditions) [1] | Critical Gelation Concentration (cgc) ([1]; overnight at room temperature) | Critical Gelation Concentration (cgc) [1, 6] | dG [3] [Pa] | Thermal stability of gel (variation of G′) [3] | G′ [3] | G″ [3] | G0 ([3]; fit of Equation (1) (Saitô) to gelation kinetics, initial storage modulus) [Pa] | Hydrogel formation ([1]; slow pH drop by GdL hydrolysis from pH 10–11, for 4 several triggers (pH, temperature, solvent exchange), 0.3–0.8 wt %) | Molecule | K, release rate constant, Korsmeyer–Peppas model ([2]; ciprofloxacin release profile) | n, release exponent, Korsmeyer–Peppas model ([2]; ciprofloxacin release profile) | K, release rate constant, Korsmeyer–Peppas model ([2]; methyl orange release profile) | n, release exponent, Korsmeyer–Peppas model ([2]; methyl orange release profile) | k (growth rate constant) [3] [h⁻¹] | kn (nucleation rate constant) [3] [h⁻¹] | Initial time lag before the significant rise in G′ [3] [s] | Apparent loss of cell viability (mitochondrial activity) [4] | Effect on HaCaT viability [4] | Loss of mitochondrial activity ([4]; the two highest concentrations) | CGC [5] [%]
4.15 | 5.1 mM | 0.4 wt % | 5722 ± 39 | shows a thermal hysteresis | 4.5 × 10^3 Pa | 1.4 × 10^2 Pa | 0 ± 25 |  | O=C(O)/C(=C/c1ccccc1)NC(=O)[C@H](Cc1ccc(O)cc1)NC(=O)c1ccc(C(=O)N[C@@H](Cc2ccc(O)cc2)C(=O)N/C(=C\c2ccccc2)C(=O)O)cc1 [Compound 2] | 0.0030 | 0.5800 | 0.0900 | 0.2700 | 1.84 ± 0.04 | 0.02 ± 0.001 | 4600 |  | mostly devoid of any effect | around 10% | 
5.30 | 3.7 mM | 0.3 wt % |  |  | 3.7 × 10^2 Pa | 1.3 × 10^1 Pa |  |  | O=C(O)/C(=C/c1ccccc1)NC(=O)[C@H](Cc1ccccc1)NC(=O)c1ccc2cc(C(=O)N[C@@H](Cc3ccccc3)C(=O)N/C(=C\c3ccccc3)C(=O)O)ccc2c1 [Compound 3] | 0.0001 | 0.6300 | 0.0400 | 0.3300 |  |  |  | around 20% |  |  | 
 | No hydrogel | No hydrogel |  |  |  |  |  | failed to give hydrogels | O=C(O)/C(=C/c1ccccc1)NC(=O)[C@H](Cc1ccc(O)cc1)NC(=O)c1ccc2cc(C(=O)N[C@@H](Cc3ccc(O)cc3)C(=O)N/C(=C\c3ccccc3)C(=O)O)ccc2c1 [Compound 4] |  |  |  |  |  |  |  | around 20% |  |  | 
